From ChEMBL document CHEMBL1151116, “In vitro study of the anticholinergic and antihistaminic activities of protopine and some derivatives” (J Nat Prod, 1988) come the findings set out here.

The test system of test [1] is Ileum. The test is described as follows: Inhibition of acetylcholine-induced contraction in guinea pig ileum at 0.28 to 2.8 uM preincubated for 5 mins before acetylcholine challenge. The class given is functional, Cavia porcellus. On the set-up: scale not given: the % may be the effect or the level left.
Test [2] concerns Ileum. The test is described as follows: Inhibition of acetylcholine-induced contraction in guinea pig ileum preincubated for 5 mins before acetylcholine challenge. The format is functional, tissue-based, Cavia porcellus.

Turning to `C[N+]1([O-])CCc2cc3c(cc2C(=O)Cc2ccc4c(c2C1)OCO4)OCO3` (stereo not drawn), the Activity with Ileum [1] is reported as 20%.
Consider `CN1[C@@H]2CC[C@H]1C[C@@H](OC(=O)C(CO)c1ccccc1)C2` (stereo partly drawn) [ATROPINE], for which the Kb in the test with Ileum [2] (Cavia porcellus, Ileum, read-out: pA2 (converted)) was 2.04 nM.
Consider `COc1ccc(Cc2nccc3cc(OC)c(OC)cc23)cc1OC` [PAPAVERINE], for which, in the test on Ileum [2], the pD2 is recorded as 5.08.
